Assay results published in patent publication US12589103B2, “Antimicrobial and antiviral effects of C2-C7 alkyl boronic acids” (CORNELL UNIVERSITY, priority 2019, dated 2026).

What was measured:
Salmonella = assay: Growth of five Salmonella strains; format: cell-based
Method: The control sample contained 40 mM NaCl.

[1] = test system: AIEC E. coli from dogs (MDR and non-MDR strains); assay: Growth of MDR and non-MDR E. coli associated with Granulomatous colitis in dogs; format: cell-based; settings: 40 mM, LB broth, 48 hrs
Method: The ability of C1-C3 alkyl boronic acids and BA to impact the growth of MDR E. coli isolated from people and dogs was evaluated using a temperature controlled 96-well multiplate incubator at 37° C. over 48 hrs. Growth in media (LB broth) with and without ABA C2-6 (40 mM) was monitored by readings at OD600 with the AUC of the growth curve calculated.
Non-MDR strains KD1, KD2, and KD3 were also evaluated.

[2] = 8-week toxicity study in mice, drinking water; format: in vivo, C57/B18 mice
Method: The toxicity of boric and ethylboronic acids were examined with C57/B18 mice. At concentrations of 0, 10, 20, and 40 mM, the two chemicals were given to each group (6 mice) in drinking water. The body weight of each mouse was recorded weekly for 8 weeks, and fecal samples were also collected weekly for 16s sequencing. All animals were sacrificed at the end of 8th week. The length of whole intestine and ileum of each mouse was measured, and sections of the intestine (i. e. small intestine, ileum, cecum, and large intestine) were taken for histopathological and FISH analysis. Fecal samples were used for 16s and lipocalin analysis.
For lipocalin analysis, mouse fecal pellets were collected and frozen at −80 C during toxicity study. To determine lipocalin activity fecal pellets were diluted in microfuge tubes 1/30 with 0.1% Tween20/PBS and vortexed for 20 min at maximum speed. Undissolved particles were removed by centrifuging at 12,000 rpm for 10 min at 4 C. Supernatant was removed and placed into a clean microfuge tube. Lipocalin activity was determined using Mouse Lipocalin-2/NGAL DuoSet ELISA Kit (R&D Systems, DY1857) per manufacturer's instructions.

[3] = DSS induced colitis in mice; format: in vivo, C57BL mice; settings: 40 mM in drinking water after DSS (3%)
Method: On the basis of favorable in vivo toxicity tests, the ability of BA and EBA to reduce the severity of inflammation in murine models of microbially driven IBD was tested. The effect of BA and EBA (40 mM) on intestinal inflammation was evaluated in mice with dextran sodium sulfate (“DSS”) induced colitis. The DSS model has a complex etiopathogenesis that involves host-immune and inflammatory responses and the enteric microbiome BA To test their protecting ability to the gastrointestinal tract, boric and ethylboronic acid were given to C57BL mice at 40 mM concentration respectively in drinking water after DSS (3%) treatment. Body weight and fecal samples were taken before and after 6-day treatment. At the 6th day, all mice were euthanized for gross necropsy and histopathology. Intestinal sections were collected and embedded for pathological and FISH analysis. Fecal samples were used for 16s and lipocalin analysis.

[4] = test system: typhoid toxin B subunit (CdtB); format: cell-based, Salmonella typhi
[5] = test system: Feline Infectious Peritonitis Virus (FIPV) Black (TN-406); assay: FIPV replication and syncytium formation, immunofluorescence; format: cell-based, Feline Coronavirus type I; settings: 10, 20, 30, 40 mM; Feline Lung cells, 18 h post-infection
[6] = test system: Klebsiella pneumonia (13Dk); assay: Growth in M9 media; settings: EBA 10-40 mM
[7] = test system: probiotic Lactobacillus spp; assay: Growth of probiotic Lactobacillus strains; settings: three Lactobacillus strains
[8] = test system: adherent invasive E. coli (AIEC, 541-1); assay: Growth in M9 media with ethanolamine or NH4Cl; settings: BA, EBA 10-40 mM, PBA 15 mM, MBA 30 mM

CCB(O)O [EBA, ethyl boronic acid]
inhibition of growth of Salmonella serovars (Salmonella): inhibit the growth of multiple serovars of Salmonella more effectively than BA
growth inhibition of canine Granulomatous colitis associated AIEC, MDR and non-MDR [1]: more effective than BA over a wider range of AIEC, including MDR and non-MDR strains
adverse effects in mice ([2]; 40 mM): safely administered to mice without adverse effects
fecal 16S profiles ([2]; mouse, in vivo): not significantly different from control mice
colon length in DSS colitis versus control mice [3]: not significantly different
fecal lipocalin levels in DSS colitis versus control mice [3]: not significantly different
intestinal bleeding in DSS colitis [3]: absent
typhoid toxin (CdtB) production [4]: inhibition of toxin production (CdtB)
replication and syncytium formation of FIPV [5]: inhibited replication and syncytium formation of FIPV in infected cells
degree of cytopathic effect (Caco-2 cells): EBA<BA<PBA
inhibition of growth of Klebsiella pneumonia 13Dk [6]: effective
growth of probiotic Lactobacillus spp [7]: do not suppress growth
inhibition of growth of AIEC 541-1 [8]: much more effective
